The results in this text go back to US20050197350A1, “Novel quinoline, tetrahydroquinazoline, and pyrimidine derivatives and methods of treatment related to the use thereof” (TAISHO PHARMACEUTICAL CO., LTD., priority 2003, published 2005).

One assay has as its system MCH receptors. In words: MCH receptor activity class (method not given).
Details: not given
As for `Cc1cc(N[C@H]2CC[C@@H](NC(=O)COc3ccc(Cl)cc3)CC2)nc2ccccc12` [Example 2551, 2-(4-chlorophenoxy)-N-{cis-4-[(4-methylquinolin-2-yl)amino]cyclohexyl}acetamide], the class is 1.

The same assay, now with this note: MCH receptor activity class 1-3 (percent of control at 10^-7 M or IC50).
For the compound `CCOc1ccccc1NC(=S)N[C@H]1CC[C@@H](Nc2cc(N(C)C)c3ccccc3n2)CC1` [compound 2302], the class is 3 (Class 3 The value of percent of control at 10^−7 M was more than 60% or the value of IC50 was more than 200 nM.).

Staying with this assay, now noted: MCH receptor; class by percent of control at 10^-7 M or IC50.
For `Cc1ccc(C(=O)N[C@H]2CC[C@@H](Nc3cc(N(C)C)c4ccccc4n3)CC2)cc1[N+](=O)[O-]` [compound 43, N-(cis-4-{[4-(dimethylamino)quinolin-2-yl]amino}cyclohexyl)-4-methyl-3-nitrobenzamide], the class is on record as 2 (Class 2: The value of percent of control at 10^−7 M was from 40% to 60% or the value of IC′50 was from 50 nM to 200 nM.).

On to `CN(C)c1cc(N[C@H]2CC[C@@H](NC(=O)c3cccs3)CC2)nc2ccccc12` [compound 52], for which the class is on record as 3 (Class 3 The value of percent of control at 10^−7 M was more than 60% or the value of IC50 was more than 200 nM.).

The same assay, now with this note: activity class 1-3: percent of control at 10^-7 M or IC50.
In the case of `C=CCOC(=O)NC[C@H]1CC[C@@H](Nc2nc3c(c(N(C)C)n2)CCCC3)CC1` [compound 1610], the class was 3 (Class 3 The value of percent of control at 10^−7 M was more than 60% or the value of IC50 was more than 200 nM.).

Staying with this assay, now noted: activity class per percent of control at 10^-7 M or IC50.
For `CN(C)c1nc(N[C@H]2CC[C@@H](NC(=O)CCC(=O)c3ccc(F)cc3)CC2)nc2c1CCCC2` [compound 983], the class is 2 (Class 2: The value of percent of control at 10^−7 M was from 40% to 60% or the value of IC′50 was from 50 nM to 200 nM.).

For the compound `CN(C)c1nc(N[C@H]2CC[C@@H](CNC(=O)c3ccc(Cl)s3)CC2)nc2c1CCCC2` [compound 1065], the class is reported as 3 (Class 3 The value of percent of control at 10^−7 M was more than 60% or the value of IC50 was more than 200 nM.).

Staying with this assay, now noted: class 1-3 by percent of control at 10^-7 M or IC50.
`Cc1ccc(C(=O)N[C@H]2CC[C@@H](Nc3nc4c(c(N(C)C)n3)CCCC4)CC2)c(F)c1F` [compound 496]: the class is recorded as 3 (Class 3 The value of percent of control at 10^−7 M was more than 60% or the value of IC50 was more than 200 nM.).

Turning to `Cc1cc(C(=O)NC[C@H]2CC[C@@H](Nc3nccc(N(C)C)n3)CC2)ccc1F` [compound 426], the class was 3 (Class 3 The value of percent of control at 10^−7 M was more than 60% or the value of IC50 was more than 200 nM.).

With `COc1ccc(CC(=O)N[C@H]2CC[C@@H](Nc3nc4c(c(N(C)C)n3)CCCC4)CC2)cc1` [compound 505], the class was 2 (Class 2: The value of percent of control at 10^−7 M was from 40% to 60% or the value of IC′50 was from 50 nM to 200 nM.).

`CN(C)c1ccnc(N[C@H]2CC[C@@H](CNC(=O)c3c(Cl)cccc3Cl)CC2)n1` [compound 439]: the class was 3 (Class 3 The value of percent of control at 10^−7 M was more than 60% or the value of IC50 was more than 200 nM.).

Take `CN(C)c1nc(N[C@H]2CC[C@@H](CNC(=O)c3cc(F)c(Cl)cc3Cl)CC2)nc2c1CCCC2` [compound 601]: the class was 3 (Class 3 The value of percent of control at 10^−7 M was more than 60% or the value of IC50 was more than 200 nM.).

The assay is the same for the next values; noted with them: class by percent of control at 10^-7 M or IC50.
For `CN(C)c1ccnc(N[C@H]2CC[C@@H](NC(=O)CSc3ccccc3)CC2)n1` [compound 281], the class is 3 (Class 3 The value of percent of control at 10^−7 M was more than 60% or the value of IC50 was more than 200 nM.).

Turning to `CCN(CC)c1ccc(CNC[C@H]2CC[C@@H](Nc3nccc(N(C)C)n3)CC2)cc1` [compound 1271], the class is reported as 2 (Class 2: The value of percent of control at 10^−7 M was from 40% to 60% or the value of IC′50 was from 50 nM to 200 nM.).

Consider `COc1ccc(C(=O)N[C@H]2CC[C@@H](Nc3cc(N(C)C)c4ccccc4n3)CC2)cc1OCc1ccccc1` [compound 750], for which the class is listed as 2 (Class 2: The value of percent of control at 10^−7 M was from 40% to 60% or the value of IC′50 was from 50 nM to 200 nM.).

As for `CN(C)c1ccnc(N[C@H]2CC[C@@H](NC(=O)c3cccc(C(=O)c4ccccc4)c3)CC2)n1` [compound 873], the class was 2 (Class 2: The value of percent of control at 10^−7 M was from 40% to 60% or the value of IC′50 was from 50 nM to 200 nM.).

Turning to `CCOc1ccc(C(=O)CC(C(=O)NC[C@H]2CC[C@@H](Nc3cc(N(C)C)c4ccccc4n3)CC2)C2C(=O)N(c3ccccc3)N=C2C)cc1` (relative stereo) [compound 807], the class was 3 (Class 3 The value of percent of control at 10^−7 M was more than 60% or the value of IC50 was more than 200 nM.).

On to `CN(C)c1ccnc(N[C@H]2CC[C@@H](NC(=O)Cc3c(Cl)ccc(Cl)c3Cl)CC2)n1` [compound 813], for which the class is reported as 3 (Class 3 The value of percent of control at 10^−7 M was more than 60% or the value of IC50 was more than 200 nM.).

For the compound `Cc1cc([N+](=O)[O-])ccc1NC(=O)N[C@H]1CC[C@@H](Nc2nc3c(c(N(C)C)n2)CCCC3)CC1` [compound 1714], the class is listed as 3 (Class 3 The value of percent of control at 10^−7 M was more than 60% or the value of IC50 was more than 200 nM.).

For `Cc1cc(C(=O)N[C@H]2CC[C@@H](Nc3nccc(N(C)C)n3)CC2)ccc1Br` [compound 275, 4-bromo-N-(cis-4-{[4-(dimethylamino)pyrimidin-2-yl]amino}cyclohexyl)-3-methylbenzamide], the class was 1 (Class 1: The value of percent of control at 10^−7 M was less than 40% or the value of IC50 was less than 50 nM.).

Consider `CCOC(=O)[C@H](CC(C)C)NC(=O)N[C@H]1CC[C@@H](Nc2cc(N(C)C)c3ccccc3n2)CC1` (relative stereo) [compound 2093], for which the class is 3 (Class 3 The value of percent of control at 10^−7 M was more than 60% or the value of IC50 was more than 200 nM.).

On to `CN(C)c1cc(N[C@H]2CC[C@@H](NC(=O)c3scc(S(C)(=O)=O)c3Cl)CC2)nc2ccccc12` [compound 764], for which the class was 3 (Class 3 The value of percent of control at 10^−7 M was more than 60% or the value of IC50 was more than 200 nM.).

As for `CN(C)c1cc(N[C@H]2CC[C@@H](NC(=O)c3ccccc3CCc3ccccc3)CC2)nc2ccccc12` [compound 732], the class is 3 (Class 3 The value of percent of control at 10^−7 M was more than 60% or the value of IC50 was more than 200 nM.).

In the case of `CCC(C(=O)NC[C@H]1CC[C@@H](Nc2nccc(N(C)C)n2)CC1)c1ccccc1` (relative stereo) [compound 411, N-[(cis-4-{[4-(dimethylamino)pyrimidin-2-yl]amino}cyclohexyl)methyl]-2-phenylbutanamide], the class was 1 (Class 1: The value of percent of control at 10^−7 M was less than 40% or the value of IC50 was less than 50 nM.).

Take `Cc1cc(C(=O)N[C@H]2CC[C@@H](Nc3nc4c(c(N(C)C)n3)CCCC4)CC2)ccc1[N+](=O)[O-]` [compound 965]: the class was 1 (Class 1: The value of percent of control at 10^−7 M was less than 40% or the value of IC50 was less than 50 nM.).

As for `CCCc1c(CNC[C@H]2CC[C@@H](Nc3nc4c(c(N(C)C)n3)CCCC4)CC2)cnn1-c1ccccc1` [compound 1510], the class was 1 (Class 1: The value of percent of control at 10^−7 M was less than 40% or the value of IC50 was less than 50 nM.).

For the compound `CN(C)c1ccnc(N[C@H]2CC[C@@H](CNC(=O)c3ccccc3Cc3ccccc3)CC2)n1` [compound 936], the class is reported as 2 (Class 2: The value of percent of control at 10^−7 M was from 40% to 60% or the value of IC′50 was from 50 nM to 200 nM.).

The assay is the same for the next values; noted with them: class by percent of control at 10^−7 M or IC50.
On to `COc1cccc(N(C)C(=O)N[C@H]2CC[C@@H](Nc3ncc(C)c(N(C)C)n3)CC2)c1` [compound 3028, N′-(cis-4-{[4-(dimethylamino)-5-methylpyrimidin-2-yl]amino}cyclohexyl)-N-(3-methoxyphenyl)-N-methylurea], for which the class was 1 (Class 1: The value of percent of control at 10^−7 M was less than 40% or the value of IC50 was less than 50 nM.).

As for `CCOc1ccc(C(=O)N[C@H]2CC[C@@H](Nc3ncc(C)c(N(C)C)n3)CC2)cc1` [compound 2921, N-(cis-4-{[4-(dimethylamino)-5-methylpyrimidin-2-yl]amino}cyclohexyl)-4-ethoxybenzamide], the class is on record as 2 (Class 2: The value of percent of control at 10^−7 M was from 40% to 60% or the value of IC′50 was from 50 nM to 200 nM.).

As for `Cc1cnc(N[C@H]2CC[C@@H](NC(=O)CN(C)c3cccc(F)c3)CC2)nc1N(C)C` [compound 2943], the class is 1 (Class 1: The value of percent of control at 10^−7 M was less than 40% or the value of IC50 was less than 50 nM.).

For the compound `Cc1cnc(N[C@H]2CC[C@@H](NC(=O)c3cccnc3Oc3cccc(C(F)(F)F)c3)CC2)nc1N(C)C` [compound 2895], the class is listed as 1 (Class 1: The value of percent of control at 10^−7 M was less than 40% or the value of IC50 was less than 50 nM.).

Consider `Cc1cnc(N[C@H]2CC[C@@H](NC(=O)c3cccc(Cl)c3)CC2)nc1N(C)C` [compound 2940, 3-chloro-N-(cis-4-{[4-(dimethylamino)-5-methylpyrimidin-2-yl]amino}cyclohexyl)benzamide], for which the class is listed as 1 (Class 1: The value of percent of control at 10^−7 M was less than 40% or the value of IC50 was less than 50 nM.).

For the compound `Cc1cnc(N[C@H]2CC[C@@H](NC(=O)C3(c4ccc(Cl)cc4Cl)CC3)CC2)nc1N(C)C` [compound 2871], the class is 1 (Class 1: The value of percent of control at 10^−7 M was less than 40% or the value of IC50 was less than 50 nM.).

As for `COc1ccccc1C(=O)N[C@H]1CC[C@@H](Nc2nc(C)cc(N(C)C)n2)CC1` [compound 2955], the class is 3 (Class 3 The value of percent of control at 10^−7 M was more than 60% or the value of IC50 was more than 200 nM.).

Take `COc1ccc(C(=O)N[C@H]2CC[C@@H](Nc3ncc(C)c(N(C)C)n3)CC2)cc1C(F)(F)F` [compound 2936, N-(cis-4-{[4-(dimethylamino)-5-methylpyrimidin-2-yl]amino}cyclohexyl)-4-methoxy-3-(trifluoromethyl)benzamide]: the class is 1 (Class 1: The value of percent of control at 10^−7 M was less than 40% or the value of IC50 was less than 50 nM.).
